# Results: patent US9964534B2, “Method of making a skin care composition” (The Procter & Gamble Company, priority 2014, dated 2018)
# B1: HMGB1: recombinant HIS-tagged HMGB1 available from Sigma; high-mobility group protein B1, SEQ ID No. 1 (protein, listed as Homo sapiens)
# chain: MGKGDPKKPRGKMSSYAFFVQTCREEHKKKHPDASVNFSEFSKKCSERWKTMSAKEKGKFEDMAKADKARYEREMKTYIPPKGETKKKFKDPNAPKRPPSAFFLFCSEYRPKIKGEHPGLSIGDVAKKLGEMWNNTAADDKQPYEKKAAKLKEKYEKDIAAYRAKGKPDAAKKGVVKAEKSKKKKEEEEDEEDEEDEEEEEDEEDEDEEEDDDDE
# modifications: His tag
# Columns and labels:
# [1] = test system: HMGB1; assay: HMGB1 quantitation from keratinocytes (ELISA of supernatant, normalized to total protein); format: cell-based; details: for HMGB1 levels relative to the control: result in words
# Description: Make a 210 mL suspension of keratinocytes at 40,000 cells/mL using suitable media to make a cell suspension. Place 2 mL of the cell suspension into the appropriate number of wells of one or more 12-well plates as needed, using the same velocity and insertion angle for each well as cells are pipetted. Incubate the 12-well plates overnight at 37° C. If the cell plating quality is poor (e.g., cells are not attached to plate or seeding density is uneven), discard and start over. Prepare a dosing media by diluting the test agent to the desired concentration (e.g., from 0.0001% to 10%) in a suitable media (e.g., the same media used to make the cell suspension). […] It is not uncommon for skin care actives to be included in skin care compositions at these levels. Optionally, include sufficient solublizer to provide 0.1% solublizer in the test sample. Add 2 mL of dosing media into each well of a 12-well plate and incubate at 4° C. overnight or until test agent is to be added to the test sample. Place prepared dosing media in the 37° C. incubator for at least 30 minutes, or until pH has equalized. When dosing media is warmed and at proper pH, dose the cells. Incubate the dosed cells at 37° C. for 6 hours. Keratinocytes (or other cells) are plated out in 12 well plates as described above with a seeding density of about […] and incubated overnight at 37° C. with 5% CO2. The keratinocytes are dosed with a dosing medium containing the test agent and the plates returned to the incubator for another 20 hours. The supernatant for each is collected and the HMGB1 level analyzed using ELISA (USCN Life Sciences) in accordance with manufacturer's instructions. The cells are lysed with Glo Lysis Buffer (Promega) and the protein levels determined using BCA kits (Pierce) per manufacturer's instructions. The values of HMGB1 determined by ELISA and normalized to total protein levels from the cells.
# [2] = test system: primary human melanocytes; assay: Melanocyte dendricity and size measurements (Incucyte ZOOM live cell imaging); format: cell-based; details: melanocytes contacted with HMGB1, over the span of three days
# Text: The ability of a test agent to inhibit dendricity and cell body growth in melanocytes may be determined by contacting a sample of melanocytes with the test agent, measuring the change in dendricity and/or cell body growth and comparing the measured indicator to a control to determine if the test agent is identified as a skin tone agent. In some instances, it is important for the test sample to include a source of HMGB1. For example, an amount of HMGB1 (e.g., recombinant HIS-tagged HMGB1 available from Sigma) may be included in the test sample (e.g., at a final level of 0.1 μg/mL), or the test sample may include another type of cell, which can be stimulated to produce HMGB1. A control may be obtained by measuring the dendricity and/or cell body size of the melanocytes prior to contact with the test agent, measuring the dendricity and/or cell body size of the melanocytes in a control sample and/or from the dendricity and/or cell body size of melanocytes published in scientific literature, if available.
# Primary human melanocytes (ATCC) are cultured for 2 passages in T150 flasks. For dendricity experiments, melanocytes are plated into 96 well plates (clear) at a density of about 5000 cells/well. The plates are placed into an Incucyte ZOOM® live cell imaging system (Essen Bioscience, Ann Arbor, Mich.) which resides inside a 37° C., 5% CO2 incubator. […]
Molecule,HMGB1 levels relative to the control [1],HMGB1 (pg)/protein (ug) ([1]; test agent 0.001%),HMGB1 (pg)/protein (ug) ([1]; test agent 0.005%),HMGB1 (pg)/protein (ug) ([1]; test agent 0.02%),cell body size of melanocytes relative to the control [2],dendricity (dendrite length) of melanocytes relative to the control [2]
hydroxycinnamic acid [HCA],significantly reduced,29 pg/ug protein,6 pg/ug protein,2 pg/ug protein,,
methyl hydroxycinnamic acid [ME-HCA],significantly reduced,33 pg/ug protein,28 pg/ug protein,4 pg/ug protein,,
B1,,,,,significantly larger,significantly longer
